Here are results for five compounds from patent publication US9290473B2, “Inhibitors of phosphatidylinositol-3-kinase (PI3) and inducers of nitric oxide (NO)” (COUCIL OF SCIENTIFIC & INDUSTRIAL RESEARCH, priority 2009, dated 2016).

The test system of one experiment is acute myeloid leukemia cell line HL60. The experiment can be described thus: Cell viability, trypan blue exclusion, HL-60. It is filed as cell-based. The following applies: Homo sapiens, 72 hours incubation, trypan blue exclusion, read-out: Activity (IC50) HL-60. The text has this: (§1) Following cancer cell lines were used: chronic myeloid leukemia cell lines K562, KU812; acute myeloid leukemia cell lines HL60, U937; T-lymphoblastic leukemia cell line Molt-4; prostate cancer cell line PC-3; breast cancer cell line MCF-7; pancreatic cancer cell line MIA PaCa-2. These cancer cell lines were maintained in tissue culture in standard growth medium containing 10% heat-inactivated fetal bovine serum (FBS). Normal human peripheral blood mononuclear cells (PBMC) were separated from whole blood by Ficoll/Hypaque density gradient centrifugation. Peripheral blood samples were collected from normal donors with due approval from the Human Ethics Committee of Indian Institute of Chemical Biology, Kolkata, India, and all experiments with human blood were conducted under an approved institutional Human Ethics committee protocol. Informed consent was provided according to the Declaration of Helsinki. Cancer cell lines and PBMC (5×10^3) in triplicate were incubated in 0.2 mL of standard growth medium containing 10% FBS with varying concentrations of test compounds of the present invention. After 72 hours of incubation, cells were collected by centrifugation (at 1000 g for 5 minutes) and cell-viability was determined by the trypan blue exclusion assay. At least 200 cells were examined in each sample. Because of monolayer culture, treated and untreated PC-3, MCF-7 and MIA PaCa-2 cells were detached from the wells by treatment with Cell Dissociation Solution (Sigma Chemical, St. Louis, Mo.) before counting. Data are represented as IC50 (minimum concentration required to inhibit the viability by 50%) in Table 5.
For `CC(=O)ON=CC(C)(C)c1ccc(OC(C)=O)c(OC(C)=O)c1` [Compound 12, 4-(1-(acetoxyimino)-2-methylpropan-2-yl)-1,2-phenylene diacetate], the IC50 came out at 190 µM.

Regarding `CCOC(=O)/C=C/C(C)(C)c1ccc(O)c(O)c1` [Compound 13, (E)-ethyl 4-(3,4-dihydroxyphenyl)-4-methylpent-2-enoate], the IC50 was 50 µM.

On to `C=CC(C)(C)c1ccc2c(c1)OCO2` [Compound 14, 5-(2-methylbut-3-en-2-yl)benzo[d][1,3]dioxole], for which the IC50 was 670 µM.

For `C=CCc1cccc(O)c1O` [Compound 16, 3-allyl-benzene-1,2-diol], the IC50 amounted to 20 µM.

In the case of `C=CCc1cccc(OC(C)=O)c1OC(C)=O` [Compound 19, 3-allyl-1,2-phenylene diacetate], the concentration for half-maximal inhibition (IC50) came to 15 µM.

Still in this experiment, the particulars now being: Homo sapiens, range over both cell lines HL60 and U937 and over the listed compounds, read-out: IC50 against acute myeloid leukemia cancer cell line (HL60, U937).
With `CCOC(=O)/C=C/C(C)(C)c1ccc(O)c(O)c1` [Compound 13, (E)-ethyl 4-(3,4-dihydroxyphenyl)-4-methylpent-2-enoate], the IC50 was 13 to 60 µM.

As to `C=CCc1cccc(O)c1O` [Compound 16, 3-allyl-benzene-1,2-diol], the half-maximal inhibitory concentration (IC50) is 13 to 60 µM.

In the next experiment the test system is chronic myeloid leukemia cell line K562. Kind of experiment: Cell viability, trypan blue exclusion, K562. Type of experiment: cell-based. The following applies: Homo sapiens, K562; 72 hours incubation, trypan blue exclusion; read-out: Activity (IC50) K562.
Description: as §1
Take `CC(=O)ON=CC(C)(C)c1ccc(OC(C)=O)c(OC(C)=O)c1` [Compound 12, 4-(1-(acetoxyimino)-2-methylpropan-2-yl)-1,2-phenylene diacetate]: the IC50 was found to be 194 µM.

In the case of `CCOC(=O)/C=C/C(C)(C)c1ccc(O)c(O)c1` [Compound 13, (E)-ethyl 4-(3,4-dihydroxyphenyl)-4-methylpent-2-enoate], the IC50 turned out to be 50 µM.

For the compound `C=CC(C)(C)c1ccc2c(c1)OCO2` [Compound 14, 5-(2-methylbut-3-en-2-yl)benzo[d][1,3]dioxole], the IC50 was 657 µM.

Regarding `C=CCc1cccc(O)c1O` [Compound 16, 3-allyl-benzene-1,2-diol], the IC50 amounted to 20 µM.

For the compound `C=CCc1cccc(OC(C)=O)c1OC(C)=O` [Compound 19, 3-allyl-1,2-phenylene diacetate], the IC50 was 13 µM.

The same experiment, now with this note: Homo sapiens, read-out: IC50 against chronic myeloid leukemia cancer cell lines (K562); range over both cell lines K562, KU812 and KU812 and over the listed compounds; read-out: IC50 against chronic myeloid leukemia cancer cell lines (K562, KU812).
In the case of `CCOC(=O)/C=C/C(C)(C)c1ccc(O)c(O)c1` [Compound 13, (E)-ethyl 4-(3,4-dihydroxyphenyl)-4-methylpent-2-enoate], the IC50 fell in the range of 13 to 52 µM.

Consider `C=CCc1cccc(O)c1O` [Compound 16, 3-allyl-benzene-1,2-diol], for which the IC50 is 13 to 52 µM.

For a further experiment, the system named is breast cancer cell line MCF-7. Kind of experiment: Cell viability, trypan blue exclusion, MCF-7. Type of experiment: cell-based, human. The settings on record: 72 hours incubation.
Description: as §1
The compound `CCOC(=O)/C=C/C(C)(C)c1ccc(O)c(O)c1` [Compound 13, (E)-ethyl 4-(3,4-dihydroxyphenyl)-4-methylpent-2-enoate] returned an IC50 of 70 µM.

Still in this experiment, the particulars now being: Homo sapiens, MCF7, 72 h, 72 hours incubation.
Compound `CC(=O)ON=CC(C)(C)c1ccc(OC(C)=O)c(OC(C)=O)c1` [Compound 12, 4-(1-(acetoxyimino)-2-methylpropan-2-yl)-1,2-phenylene diacetate] returned a concentration for half-maximal inhibition (IC50) of 200 µM.

For the compound `C=CCc1cccc(O)c1O` [Compound 16, 3-allyl-benzene-1,2-diol], the concentration for half-maximal inhibition (IC50) lay within 25 to 70 µM.

Turning to `C=CCc1cccc(OC(C)=O)c1OC(C)=O` [Compound 19, 3-allyl-1,2-phenylene diacetate], the 50% inhibitory concentration (IC50) was determined as 20 µM.

Still in this experiment, the particulars now being: Homo sapiens, MCF7, 72 hours incubation.
The compound `C=CC(C)(C)c1ccc2c(c1)OCO2` [Compound 14, 5-(2-methylbut-3-en-2-yl)benzo[d][1,3]dioxole] showed an IC50 of 680 µM.

In another experiment the test system is chronic myeloid leukemia cell line KU812. The experiment can be described thus: Cell viability, trypan blue exclusion, KU812. It is filed as cell-based. The settings on record: Homo sapiens, 72 hours incubation.
Description: as §1
For `CC(=O)ON=CC(C)(C)c1ccc(OC(C)=O)c(OC(C)=O)c1` [Compound 12, 4-(1-(acetoxyimino)-2-methylpropan-2-yl)-1,2-phenylene diacetate], it took 190 µM to reach half-maximal inhibition (IC50).

For `CCOC(=O)/C=C/C(C)(C)c1ccc(O)c(O)c1` [Compound 13, (E)-ethyl 4-(3,4-dihydroxyphenyl)-4-methylpent-2-enoate], the IC50 stood at 45 µM.

Consider `C=CC(C)(C)c1ccc2c(c1)OCO2` [Compound 14, 5-(2-methylbut-3-en-2-yl)benzo[d][1,3]dioxole], for which half-maximal inhibition (IC50) was put at 650 µM.

Take `C=CCc1cccc(O)c1O` [Compound 16, 3-allyl-benzene-1,2-diol]: the half-maximal inhibitory concentration (IC50) came out at 25 µM.

`C=CCc1cccc(OC(C)=O)c1OC(C)=O` [Compound 19, 3-allyl-1,2-phenylene diacetate] gave an IC50 of 20 µM.

The subject of another experiment is T-lymphoblastic leukemia cell line Molt-4. The experiment can be described thus: Cell viability, trypan blue exclusion, Molt-4. It is filed as cell-based, human. The settings on record: 72 hours incubation.
Description: as §1
For `CCOC(=O)/C=C/C(C)(C)c1ccc(O)c(O)c1` [Compound 13, (E)-ethyl 4-(3,4-dihydroxyphenyl)-4-methylpent-2-enoate], the IC50 stood at 45 µM.

`C=CCc1cccc(O)c1O` [Compound 16, 3-allyl-benzene-1,2-diol] gave an IC50 of 20 µM.

The same experiment, now with this note: Homo sapiens, MOLT-4, 72 h, 72 hours incubation.
`CC(=O)ON=CC(C)(C)c1ccc(OC(C)=O)c(OC(C)=O)c1` [Compound 12, 4-(1-(acetoxyimino)-2-methylpropan-2-yl)-1,2-phenylene diacetate] showed an IC50 of 190 µM.

With `C=CCc1cccc(O)c1O` [Compound 16, 3-allyl-benzene-1,2-diol], the IC50 is 15 to 50 µM.

With `C=CCc1cccc(OC(C)=O)c1OC(C)=O` [Compound 19, 3-allyl-1,2-phenylene diacetate], 20 µM corresponded to half-maximal inhibition (IC50).

The experiment is the same for the next values; noted with them: Homo sapiens, MOLT-4, 72 hours incubation.
`C=CC(C)(C)c1ccc2c(c1)OCO2` [Compound 14, 5-(2-methylbut-3-en-2-yl)benzo[d][1,3]dioxole]: half-maximal inhibition (IC50) required 650 µM.

Another experiment relates to prostate cancer cell line PC-3. Kind of experiment: Cell viability, trypan blue exclusion, PC-3. Type of experiment: cell-based, human. The following applies: 72 hours incubation.
Description: as §1
`CCOC(=O)/C=C/C(C)(C)c1ccc(O)c(O)c1` [Compound 13, (E)-ethyl 4-(3,4-dihydroxyphenyl)-4-methylpent-2-enoate]: inhibition was half-maximal at 70 µM (IC50).

Take `C=CCc1cccc(O)c1O` [Compound 16, 3-allyl-benzene-1,2-diol]: half-maximal inhibition (IC50) required 30 µM.

Staying with this experiment, now noted: Homo sapiens, 72 h, 72 hours incubation.
As to `CC(=O)ON=CC(C)(C)c1ccc(OC(C)=O)c(OC(C)=O)c1` [Compound 12, 4-(1-(acetoxyimino)-2-methylpropan-2-yl)-1,2-phenylene diacetate], 200 µM corresponded to half-maximal inhibition (IC50).

As for `C=CCc1cccc(O)c1O` [Compound 16, 3-allyl-benzene-1,2-diol], the IC50 was 25 to 70 µM.

As to `C=CCc1cccc(OC(C)=O)c1OC(C)=O` [Compound 19, 3-allyl-1,2-phenylene diacetate], half-maximal inhibition (IC50) was put at 20 µM.

The experiment is the same for the next values; noted with them: Homo sapiens, 72 hours incubation.
Regarding `C=CC(C)(C)c1ccc2c(c1)OCO2` [Compound 14, 5-(2-methylbut-3-en-2-yl)benzo[d][1,3]dioxole], half-maximal inhibition (IC50) required 670 µM.

For a further experiment, the system named is acute myeloid leukemia cell line U937. The experiment can be described thus: Cell viability, trypan blue exclusion, U937. It is filed as cell-based. The settings on record: Homo sapiens, U-937, 72 hours incubation.
Description: as §1
The compound `CC(=O)ON=CC(C)(C)c1ccc(OC(C)=O)c(OC(C)=O)c1` [Compound 12, 4-(1-(acetoxyimino)-2-methylpropan-2-yl)-1,2-phenylene diacetate] came in with a concentration for half-maximal inhibition (IC50) of 190 µM.

The compound `CCOC(=O)/C=C/C(C)(C)c1ccc(O)c(O)c1` [Compound 13, (E)-ethyl 4-(3,4-dihydroxyphenyl)-4-methylpent-2-enoate] showed an IC50 of 45 µM.

In the case of `C=CC(C)(C)c1ccc2c(c1)OCO2` [Compound 14, 5-(2-methylbut-3-en-2-yl)benzo[d][1,3]dioxole], it took 670 µM to reach half-maximal inhibition (IC50).

`C=CCc1cccc(O)c1O` [Compound 16, 3-allyl-benzene-1,2-diol] displayed an IC50 of 25 µM.

For `C=CCc1cccc(OC(C)=O)c1OC(C)=O` [Compound 19, 3-allyl-1,2-phenylene diacetate], the IC50 worked out at 15 µM.

The test system of another experiment is pancreatic cancer cell line MIA PaCa-2. Kind of experiment: Cell viability, trypan blue exclusion, MIA PaCa-2. Type of experiment: cell-based, human. The settings on record: Homo sapiens, MIA PaCa-2, 72 h, 72 hours incubation, read-out: Activity (IC50) MIAPaCa-2.
Description: as §1
On to `CCOC(=O)/C=C/C(C)(C)c1ccc(O)c(O)c1` [Compound 13, (E)-ethyl 4-(3,4-dihydroxyphenyl)-4-methylpent-2-enoate], for which the IC50 was in the range of 30 to 70 µM.

Regarding `C=CCc1cccc(O)c1O` [Compound 16, 3-allyl-benzene-1,2-diol], the IC50 was 30 to 70 µM.

Take `C=CCc1cccc(OC(C)=O)c1OC(C)=O` [Compound 19, 3-allyl-1,2-phenylene diacetate]: the half-inhibitory concentration (IC50) is 20 µM.

The same experiment, now with this note: Homo sapiens, MIA PaCa-2, 72 hours incubation, read-out: Activity (IC50) MIAPaCa-2.
As to `C=CC(C)(C)c1ccc2c(c1)OCO2` [Compound 14, 5-(2-methylbut-3-en-2-yl)benzo[d][1,3]dioxole], the IC50 turned out to be 680 µM.

For a further experiment, the system named is Normal human peripheral blood mononuclear cells (PBMC). Kind of experiment: Cell viability, trypan blue exclusion, normal PBMC. Type of experiment: cell-based. The following applies: 72 hours incubation.
Description: as §1
As to `CC(=O)ON=CC(C)(C)c1ccc(OC(C)=O)c(OC(C)=O)c1` [Compound 12, 4-(1-(acetoxyimino)-2-methylpropan-2-yl)-1,2-phenylene diacetate], 250 µM corresponded to half-maximal inhibition (IC50).

The compound `CCOC(=O)/C=C/C(C)(C)c1ccc(O)c(O)c1` [Compound 13, (E)-ethyl 4-(3,4-dihydroxyphenyl)-4-methylpent-2-enoate] gave an IC50 of 75 µM.

As to `C=CC(C)(C)c1ccc2c(c1)OCO2` [Compound 14, 5-(2-methylbut-3-en-2-yl)benzo[d][1,3]dioxole], the IC50 was found to be 800 µM.

With `C=CCc1cccc(O)c1O` [Compound 16, 3-allyl-benzene-1,2-diol], it took 30 µM to reach half-maximal inhibition (IC50).

The compound `C=CCc1cccc(OC(C)=O)c1OC(C)=O` [Compound 19, 3-allyl-1,2-phenylene diacetate] displayed a 50% inhibitory concentration (IC50) of 30 µM.
